From the supplement of paper PMC10307832

Columns and labels:
Experiment in all cases: relative viability (nuclei count vs DMSO), 5 days (fraction); higher = more cells survive
[1] = compound: CC1=CC(=CC=C1)NC2=NC(=CS2)C3=CC=NC=C3 + CS(=O)(=O)CCNCc1ccc(-c2ccc3ncnc(Nc4ccc(OCc5cccc(F)c5)c(Cl)c4)c3c2)o1 [Lapatinib] (partner 2 µM)
In short: (§1)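 Dosing by pin tool came one day after lung cancer cell lines were seeded in 1536-well plates, using either one drug or a fixed anchor-drug dose plus five library-drug doses (not always all listed) in √10 steps. After 5 days, nuclei were counted on 4× images. Relative viability is treated-well nuclei count divided by vehicle-well nuclei count, and values are medians of duplicate plates.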

[2] = compound: CC1=CC(=CC=C1)NC2=NC(=CS2)C3=CC=NC=C3 + CS(=O)(=O)N1CCN(Cc2cc3nc(-c4cccc5[nH]ncc45)nc(N4CCOCC4)c3s2)CC1 [Pictilisib] (partner 1 µM)
In short: as §1

[3] = compound: Cc1ccc(NC(=O)c2ccc(CN3CCN(C)CC3)cc2)cc1Nc1nc(-c2cccnc2)cs1 [Masitinib] + CS(=O)(=O)CCNCc1ccc(-c2ccc3ncnc(Nc4ccc(OCc5cccc(F)c5)c(Cl)c4)c3c2)o1 [Lapatinib] (partner 2 µM)
In short: as §1

[4] = compound: Cc1ccc(NC(=O)c2ccc(CN3CCN(C)CC3)cc2)cc1Nc1nc(-c2cccnc2)cs1 [Masitinib] + Cc1nc(NC(=O)N2CCC[C@H]2C(N)=O)sc1-c1ccnc(C(C)(C)C(F)(F)F)c1 [Alpelisib] (partner 2 µM)
In short: as §1

Row | Cell Line | relative viability ([1]; first compound 0.08 µM) | relative viability ([1]; first compound 0.253 µM) | relative viability ([1]; first compound 0.8 µM) | relative viability ([1]; first compound 2.53 µM) | relative viability ([1]; first compound 8 µM) | relative viability ([2]; first compound 0.08 µM) | relative viability ([2]; first compound 0.253 µM) | relative viability ([2]; first compound 0.8 µM) | relative viability ([2]; first compound 2.53 µM) | relative viability ([2]; first compound 8 µM) | relative viability ([3]; first compound 0.01 µM) | relative viability ([3]; first compound 0.1 µM) | relative viability ([3]; first compound 0.3162 µM) | relative viability ([3]; first compound 1 µM) | relative viability ([4]; first compound 0.01 µM) | relative viability ([4]; first compound 0.1 µM) | relative viability ([4]; first compound 0.3162 µM) | relative viability ([4]; first compound 1 µM) | relative viability ([3]; first compound 0.03162 µM) | relative viability ([4]; first compound 0.03162 µM)
1 | NCI-H1993 | 0.685 | 0.802 | 0.7 | 0.869 | 0.778 | 0.804 | 0.907 | 0.788 | 0.822 | 0.779 | 0.438 | 0.913 | 0.776 | 0.678 | 0.669 | 0.627 | 0.728 | 0.636 |  | 
2 | Calu-6 | 0.945 | 0.969 | 0.86 | 0.873 | 0.823 | 0.796 | 0.718 | 0.659 | 0.815 | 0.803 | 1.05 | 1.25 | 0.938 | 1.05 | 1.02 | 1.02 | 0.872 | 0.923 | 1.01 | 1.01
3 | NCI-H2009 | 0.768 | 0.857 | 0.978 | 0.89 | 0.588 | 0.724 | 0.837 | 0.692 | 0.856 | 0.957 | 0.567 | 0.719 | 0.834 | 0.9 | 1.15 | 1.24 | 1.16 | 1.18 | 0.984 | 1.12
4 | SK-LU-1 | 0.994 | 1.05 |  | 0.835 | 0.937 | 0.527 | 0.575 |  | 0.586 | 0.626 | 0.928 | 1.04 | 0.986 | 0.779 | 1.12 | 0.984 | 1.31 | 1.03 | 0.853 | 1.14
5 | NCI-H2347 | 0.731 | 0.767 | 0.635 | 0.95 | 0.757 | 0.583 | 0.685 | 0.434 | 0.665 | 0.578 | 0.826 | 0.821 | 0.833 | 0.948 | 0.981 | 1.01 | 1.13 | 1.05 | 0.911 | 1.14
6 | HCC-366 | 0.848 | 1.07 | 1.01 | 1.05 | 0.951 | 0.146 | 0.11 | 0.132 | 0.157 | 0.121 | 0.731 | 0.785 | 0.945 | 1.13 | 0.33 | 0.376 | 0.315 | 0.382 | 1.1 | 0.294
7 | EMC-BAC-2 | 0.78 | 0.85 | 0.839 | 0.829 | 0.848 | 0.449 | 0.496 | 0.53 | 0.48 | 0.554 | 0.793 | 0.837 | 0.9 | 0.966 | 0.701 | 0.841 | 0.767 | 0.783 | 0.911 | 0.714
8 | NCI-H3122 | 1.05 | 1.08 | 1.05 | 1.09 | 1.08 | 0.648 | 0.632 | 0.667 | 0.727 | 0.83 | 1.01 | 1.02 | 1.04 | 1 | 0.87 | 0.785 | 0.899 | 0.821 | 1.04 | 0.758
